Several values for one entry are separate records, joined by “and”; a condition that tells them apart may be missing. Equal entries are not always repeated.
System: GEMS receptors with CBPvene (Bcl2–LD3 and Bcl2high variants), STAT3-driven SEAP in HEK293T cells
Assay: GEMS SEAP reporter assay, CBPvene (Bcl2high, LD3-v and Bcl2-v variants) with venetoclax
Format: cell-based
Details: for SEAP, replicate values: Supplementary Figure 8e
[1] = SuppFigure 8b, LD3, venetoclax 10 nM
[2] = SuppFigure 8b, LD3, venetoclax 31.6 nM
[3] = SuppFigure 8b, LD3, venetoclax 100 nM
[4] = SuppFigure 8b, LD3, venetoclax 316 nM
[5] = SuppFigure 8b, LD3, venetoclax 1000 nM
[6] = SuppFigure 8b, LD3, venetoclax 3160 nM
[7] = SuppFigure 8b, LD3, venetoclax 10000 nM
[8] = SuppFigure 8b, LD3v1, venetoclax 1 nM
[9] = SuppFigure 8b, LD3v1, venetoclax 3.16 nM
[10] = SuppFigure 8b, LD3v1, venetoclax 10 nM
[11] = SuppFigure 8b, LD3v1, venetoclax 31.6 nM
[12] = SuppFigure 8b, LD3v1, venetoclax 100 nM
[13] = SuppFigure 8b, LD3v1, venetoclax 316 nM
[14] = SuppFigure 8b, LD3v1, venetoclax 1000 nM
[15] = SuppFigure 8b, LD3v1, venetoclax 3160 nM
[16] = SuppFigure 8b, LD3v1, venetoclax 10000 nM
[17] = SuppFigure 8b, LD3v2, venetoclax 1 nM
[18] = SuppFigure 8b, LD3v2, venetoclax 3.16 nM
[19] = SuppFigure 8b, LD3v2, venetoclax 10 nM
[20] = SuppFigure 8b, LD3v2, venetoclax 31.6 nM
[21] = SuppFigure 8b, LD3v2, venetoclax 100 nM
[22] = SuppFigure 8b, LD3v2, venetoclax 316 nM
[23] = SuppFigure 8b, LD3v2, venetoclax 1000 nM
[24] = SuppFigure 8b, LD3v2, venetoclax 3160 nM
[25] = SuppFigure 8b, LD3v2, venetoclax 10000 nM
[26] = SuppFigure 8b, LD3v3, venetoclax 1 nM
[27] = SuppFigure 8b, LD3v3, venetoclax 3.16 nM
[28] = SuppFigure 8b, LD3v3, venetoclax 10 nM
[29] = SuppFigure 8b, LD3v3, venetoclax 31.6 nM
[30] = SuppFigure 8b, LD3v3, venetoclax 100 nM
[31] = SuppFigure 8b, LD3v3, venetoclax 316 nM
[32] = SuppFigure 8b, LD3v3, venetoclax 1000 nM
[33] = SuppFigure 8b, LD3v3, venetoclax 3160 nM
[34] = SuppFigure 8b, LD3v3, venetoclax 10000 nM
[35] = SuppFigure 8c, LD3, venetoclax 1 nM
[36] = SuppFigure 8c, LD3, venetoclax 3.16 nM
[37] = SuppFigure 8c, LD3, venetoclax 10 nM
[38] = SuppFigure 8c, LD3, venetoclax 31.6 nM
[39] = SuppFigure 8c, LD3, venetoclax 100 nM
[40] = SuppFigure 8c, LD3, venetoclax 316 nM
[41] = SuppFigure 8c, LD3, venetoclax 1000 nM
[42] = SuppFigure 8c, LD3, venetoclax 3160 nM
[43] = SuppFigure 8c, LD3, venetoclax 10000 nM
[44] = SuppFigure 8c, LD3v1, venetoclax 1 nM
[45] = SuppFigure 8c, LD3v1, venetoclax 3.16 nM
[46] = SuppFigure 8c, LD3v1, venetoclax 10 nM
[47] = SuppFigure 8c, LD3v1, venetoclax 31.6 nM
[48] = SuppFigure 8c, LD3v1, venetoclax 100 nM
[49] = SuppFigure 8c, LD3v1, venetoclax 316 nM
[50] = SuppFigure 8c, LD3v1, venetoclax 1000 nM
[51] = SuppFigure 8c, LD3v1, venetoclax 3160 nM
[52] = SuppFigure 8c, LD3v1, venetoclax 10000 nM
[53] = SuppFigure 8c, LD3v2, venetoclax 1 nM
[54] = SuppFigure 8c, LD3v2, venetoclax 3.16 nM
[55] = SuppFigure 8c, LD3v2, venetoclax 10 nM
[56] = SuppFigure 8c, LD3v2, venetoclax 31.6 nM
[57] = SuppFigure 8c, LD3v2, venetoclax 100 nM
[58] = SuppFigure 8c, LD3v2, venetoclax 316 nM
[59] = SuppFigure 8c, LD3v2, venetoclax 1000 nM
[60] = SuppFigure 8c, LD3v2, venetoclax 3160 nM
[61] = SuppFigure 8c, LD3v2, venetoclax 10000 nM
[62] = SuppFigure 8c, LD3v3, venetoclax 1 nM
[63] = SuppFigure 8c, LD3v3, venetoclax 3.16 nM
[64] = SuppFigure 8c, LD3v3, venetoclax 10 nM
[65] = SuppFigure 8c, LD3v3, venetoclax 31.6 nM
[66] = SuppFigure 8c, LD3v3, venetoclax 100 nM
[67] = SuppFigure 8c, LD3v3, venetoclax 316 nM
[68] = SuppFigure 8c, LD3v3, venetoclax 1000 nM
[69] = SuppFigure 8c, LD3v3, venetoclax 3160 nM
[70] = SuppFigure 8c, LD3v3, venetoclax 10000 nM

## CC1(C)CCC(CN2CCN(c3ccc(C(=O)NS(=O)(=O)c4ccc(NCC5CCOCC5)c([N+](=O)[O-])c4)c(Oc4cnc5[nH]ccc5c4)c3)CC2)=C(c2ccc(Cl)cc2)C1 [Venetoclax]
[1]
  Normalized data (SEAP): 4.498
  Raw data (SEAP): 18.9052
[2]
  Normalized data (SEAP): 14.8552
  Raw data (SEAP): 62.4429
[3]
  Normalized data (SEAP): 43.1759
  Raw data (SEAP): 181.487
[4]
  Normalized data (SEAP): 91.7223
  Raw data (SEAP): 385.549
[5]
  Normalized data (SEAP): 100
  Raw data (SEAP): 420.344
[6]
  Normalized data (SEAP): 92.3499
  Raw data (SEAP): 388.188
[7]
  Normalized data (SEAP): 51.2329
  Raw data (SEAP): 215.355
[8]
  Normalized data (SEAP): 9.345
  Raw data (SEAP): 17.9682
[9]
  Normalized data (SEAP): 9.034
  Raw data (SEAP): 17.3705
[10]
  Normalized data (SEAP): 10.4886
  Raw data (SEAP): 20.1681
[11]
  Normalized data (SEAP): 19.5956
  Raw data (SEAP): 37.6794
[12]
  Normalized data (SEAP): 44.2027
  Raw data (SEAP): 84.9952
[13]
  Normalized data (SEAP): 100
  Raw data (SEAP): 192.285
[14]
  Normalized data (SEAP): 87.7314
  Raw data (SEAP): 168.695
[15]
  Normalized data (SEAP): 49.2054
  Raw data (SEAP): 94.6147
[16]
  Normalized data (SEAP): 19.8616
  Raw data (SEAP): 38.191
[17]
  Normalized data (SEAP): 3.604
  Raw data (SEAP): 12.0656
[18]
  Normalized data (SEAP): 3.9805
  Raw data (SEAP): 13.3245
[19]
  Normalized data (SEAP): 4.834
  Raw data (SEAP): 16.18
[20]
  Normalized data (SEAP): 12.8068
  Raw data (SEAP): 42.87
[21]
  Normalized data (SEAP): 33.7173
  Raw data (SEAP): 112.867
[22]
  Normalized data (SEAP): 77.9659
  Raw data (SEAP): 260.986
[23]
  Normalized data (SEAP): 100
  Raw data (SEAP): 334.744
[24]
  Normalized data (SEAP): 66.077
  Raw data (SEAP): 221.189
[25]
  Normalized data (SEAP): 30.9558
  Raw data (SEAP): 103.623
[26]
  Normalized data (SEAP): 59.1038
  Raw data (SEAP): 11.2669
[27]
  Normalized data (SEAP): 71.809
  Raw data (SEAP): 13.6889
[28]
  Normalized data (SEAP): 61.7452
  Raw data (SEAP): 11.7704
[29]
  Normalized data (SEAP): 69.7498
  Raw data (SEAP): 13.2963
[30]
  Normalized data (SEAP): 80.5519
  Raw data (SEAP): 15.3555
[31]
  Normalized data (SEAP): 100
  Raw data (SEAP): 19.0629
[32]
  Normalized data (SEAP): 89.5017
  Raw data (SEAP): 17.0616
[33]
  Normalized data (SEAP): 75.6488
  Raw data (SEAP): 14.4208
[34]
  Normalized data (SEAP): 59.7156
  Raw data (SEAP): 11.3835
[35]
  Normalized data (SEAP): 3.575
  Raw data (SEAP): 13.7218
[36]
  Normalized data (SEAP): 3.97
  Raw data (SEAP): 15.2365
[37]
  Normalized data (SEAP): 6.118
  Raw data (SEAP): 23.4789
[38]
  Normalized data (SEAP): 19.9083
  Raw data (SEAP): 76.4036
[39]
  Normalized data (SEAP): 50.1718
  Raw data (SEAP): 192.548
[40]
  Normalized data (SEAP): 93.753
  Raw data (SEAP): 359.804
[41]
  Normalized data (SEAP): 100
  Raw data (SEAP): 383.778
[42]
  Normalized data (SEAP): 77.866
  Raw data (SEAP): 298.833
[43]
  Normalized data (SEAP): 35.1914
  Raw data (SEAP): 135.057
[44]
  Normalized data (SEAP): 13.8401
  Raw data (SEAP): 15.4633
[45]
  Normalized data (SEAP): 14.8573
  Raw data (SEAP): 16.5999
[46]
  Normalized data (SEAP): 15.6025
  Raw data (SEAP): 17.4324
[47]
  Normalized data (SEAP): 28.6773
  Raw data (SEAP): 32.0407
[48]
  Normalized data (SEAP): 48.5828
  Raw data (SEAP): 54.2809
[49]
  Normalized data (SEAP): 100
  Raw data (SEAP): 111.729
[50]
  Normalized data (SEAP): 98.9424
  Raw data (SEAP): 110.547
[51]
  Normalized data (SEAP): 75.2543
  Raw data (SEAP): 84.0806
[52]
  Normalized data (SEAP): 21.4009
  Raw data (SEAP): 23.9109
[53]
  Normalized data (SEAP): 4.916
  Raw data (SEAP): 14.375
[54]
  Normalized data (SEAP): 5.386
  Raw data (SEAP): 15.7505
[55]
  Normalized data (SEAP): 6.285
  Raw data (SEAP): 18.3792
[56]
  Normalized data (SEAP): 18.3149
  Raw data (SEAP): 53.5545
[57]
  Normalized data (SEAP): 44.7805
  Raw data (SEAP): 130.943
[58]
  Normalized data (SEAP): 92.9232
  Raw data (SEAP): 271.716
[59]
  Normalized data (SEAP): 100
  Raw data (SEAP): 292.41
[60]
  Normalized data (SEAP): 75.7485
  Raw data (SEAP): 221.496
[61]
  Normalized data (SEAP): 31.6477
  Raw data (SEAP): 92.541
[62]
  Normalized data (SEAP): 39.2835
  Raw data (SEAP): 15.066
[63]
  Normalized data (SEAP): 40.4811
  Raw data (SEAP): 15.5253
[64]
  Normalized data (SEAP): 41.5277
  Raw data (SEAP): 15.9266
[65]
  Normalized data (SEAP): 52.0376
  Raw data (SEAP): 19.9574
[66]
  Normalized data (SEAP): 75.9664
  Raw data (SEAP): 29.1345
[67]
  Normalized data (SEAP): 100
  Raw data (SEAP): 38.3518
[68]
  Normalized data (SEAP): 67.7678
  Raw data (SEAP): 25.9902
[69]
  Normalized data (SEAP): 51.723
  Raw data (SEAP): 19.8367
[70]
  Normalized data (SEAP): 31.0619
  Raw data (SEAP): 11.9128
CBPVene-v5-LD3v1, venetoclax 100 nM
  SEAP, replicate values: 98.3781 and 87.1331 and 45.1145
CBPVene-v5-LD3v1, venetoclax 3160 nM
  SEAP, replicate values: 13.0779
CBPVene-v5, venetoclax 100 nM
  SEAP, replicate values: 341.722 and 335.341
Venetoclax 10000 nM, construct CBPVene-v4-LD3v1, three replicate columns
  Raw data Figure 5c, CBPVene-v4-LD3v1 (SEAP reporter raw value, single replicate): 307.085 and 269.935 and 317.486
Venetoclax 10000 nM, construct CBPVene-v4, three replicate columns
  Raw data Figure 5c, CBPVene-v4 (SEAP reporter raw value, single replicate): 10.3692 and 8.227 and 12.3711

Source: publication PMC11062894, “Protein-based bandpass filters for controlling cellular signaling with chemical inputs” (Nature Chemical Biology, 2023)
